Assay results from patent US20060128695A1, “Cyclic nucleotide phosphodiesterase inhibitors, preparation and uses” (NEURO3D, priority 2002, published 2006).
pIC50: −log10 of the molar value. Where a name gives a salt, the structure may show the parent alone.

The compounds below were run against T1, PDE2 (Bos taurus, UniProt P14099) (assay: Inhibition of PDE2, radioenzymatic phosphodiesterase assay). Conditions: not given.
T1 construct: PDE2 was prepared from bovine endothelial cells by the same methods; endogenous in cells; host or cells: bovine endothelial cells
T1 sequence (P14099 1-921): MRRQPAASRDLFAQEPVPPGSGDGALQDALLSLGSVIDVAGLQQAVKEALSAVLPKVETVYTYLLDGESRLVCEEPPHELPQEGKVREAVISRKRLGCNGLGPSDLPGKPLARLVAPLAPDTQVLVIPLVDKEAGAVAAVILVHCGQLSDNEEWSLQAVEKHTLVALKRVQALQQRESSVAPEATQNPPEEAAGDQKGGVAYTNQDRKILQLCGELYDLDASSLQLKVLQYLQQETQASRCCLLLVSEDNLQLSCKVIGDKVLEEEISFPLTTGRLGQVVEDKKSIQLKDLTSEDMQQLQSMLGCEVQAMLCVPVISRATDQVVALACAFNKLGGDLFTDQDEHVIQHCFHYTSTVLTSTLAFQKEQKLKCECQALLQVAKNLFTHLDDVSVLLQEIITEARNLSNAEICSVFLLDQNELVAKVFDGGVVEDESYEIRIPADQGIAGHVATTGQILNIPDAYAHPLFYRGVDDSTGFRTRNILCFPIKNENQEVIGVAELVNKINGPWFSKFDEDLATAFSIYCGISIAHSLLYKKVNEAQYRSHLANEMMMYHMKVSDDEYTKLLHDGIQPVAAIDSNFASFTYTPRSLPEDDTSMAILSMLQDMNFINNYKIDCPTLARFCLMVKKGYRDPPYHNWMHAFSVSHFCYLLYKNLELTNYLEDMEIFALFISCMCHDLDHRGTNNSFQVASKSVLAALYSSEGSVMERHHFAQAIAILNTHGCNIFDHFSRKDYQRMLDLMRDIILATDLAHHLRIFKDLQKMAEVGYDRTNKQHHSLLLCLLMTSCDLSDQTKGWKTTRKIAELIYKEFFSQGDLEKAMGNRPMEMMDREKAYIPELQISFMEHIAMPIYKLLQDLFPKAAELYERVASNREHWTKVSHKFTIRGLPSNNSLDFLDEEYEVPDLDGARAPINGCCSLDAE
Type: biochemical, bovine

Question: With `CCOC(=O)CN1C(=O)CN=C(c2cccc(C#N)c2)c2cc(OC)c(OC)cc21` [Compound 4n, Ethyl[5-(3-cyanophenyl)-7,8-dimethoxy-2-oxo-2,3-dihydro-1H-1,4-benzodiazepin-1-yl]acetate] as the compound, how does the pIC50 read?
Answer: 5.43

Question: With `COc1cc2c(cc1OC)N(C)C(=O)CN=C2c1cccc(CNCc2ccccc2)c1` [Compound 17m, 5-[3-(benzylaminomethyl)phenyl]-7,8-dimethoxy-1-methyl-1,3-dihydro-2H-1,4-benzodiazepin-2-one hydrochloride] as the compound, how does the pIC50 read?
Answer: 5.32

Question: How did the pIC50 turn out when `COc1cc2c(cc1OC)N(C)C(=O)CN=C2c1cccc(C)c1` [Compound 17k, 7,8-dimethoxy-1-methyl-5-(3-methylphenyl)-1,3-dihydro-1,4-benzodiazepin-2-one] was run?
Answer: 5.43

Same assay, conditions: 10 μM test compound; PDE2 from bovine endothelial cells

Question: `CNC1=Nc2cc(OC)c(OC)cc2C(c2cccc(C#N)c2)=NC1` [Compound 12a, 3-(7,8-dimethoxy-2-methylamino-1,3-dihydro-3H-1,4-benzodiazepin-5-yl)benzonitrile] was tested. Which “PDE2 percentage inhibition at 10 μM” value did it give?
Answer: 16%

Question: For “[6-(3-aminoethynyl)-7,8-dimethoxy-1-methyl-2-oxo-2,3-dihydro-1H-1,4-benzodiazepin-5-yl]benzonitrile [Compound 25g]”, which “PDE2 percentage inhibition at 10 μM” value is on record?
Answer: 14.5%

Same assay, conditions: 10 μM test compound; PDE2 from bovine endothelial cells; read-out: PDE2 percentage inhibition at 10 μM

Question: How did the inhibition at 10 µM turn out when `COc1cc2c(cc1OC)-n1ccnc1CN=C2c1cccc(C(N)=O)c1` [Compound 11b, 3-(8,9-dimethoxy-4H-imidazo[1,2-a] [1,4]benzodiazepin-6-yl)benzamide] was run?
Answer: 69.3%

Question: `COc1cc2c(c(Br)c1OC)N(C)C(=O)CN=C2c1cccc(C(N)=O)c1` [Compound 5d, 3-(9-bromo-7,8-dimethoxy-1-methyl-2-oxo-2,3-dihydro-1H-1,4-benzodiazepin-5-yl)benzamide] was tested. Which inhibition at 10 µM did it give?
Answer: 19.2%

Same assay, conditions: read-out: PDE2 percentage inhibition at 10 μM

Question: Which inhibition at 10 µM does the source give for `CCN1C(=O)CN=C(c2cccc(C#N)c2)c2cc(OC)c(OC)cc21` [Compound 4k, 3-(1-ethyl-7,8-dimethoxy-2-oxo-2,3-dihydro-1H-1,4-benzodiazepin-5-yl)benzonitrile] here?
Answer: 75.9%

Question: How did the inhibition at 10 µM turn out when `CCCN1C(=O)CN=C(c2cccc(C(F)(F)F)c2)c2cc(OC)c(OC)cc21` [Compound 4r, 5-[3-(trifluoromethyl)phenyl]-7,8-dimethoxy-1-n-propyl-1,3-dihydro-1,4-benzodiazepin-2-one] was run?
Answer: 34%

Question: For `CCCN1C(=O)CN=C(c2cccc(C#N)c2)c2cc(OC)c(OC)cc21` [Compound 4l, 3-(7,8-dimethoxy-1-propyl-2-oxo-2,3-dihydro-1H-1,4-benzodiazepin-5-yl)benzonitrile], which inhibition at 10 µM is on record?
Answer: 72.1%

Question: With `COc1cc2c(cc1OC)N(C)C(=O)C(C)N=C2c1cccc(C(F)(F)F)c1` (stereo not shown) [Compound 7c, 7,8-dimethoxy-1,3-dimethyl-5-(3-trifluoromethylphenyl)-1,3-dihydro-2H-1,4-benzodiazepin-2-one] as the compound, how does the inhibition at 10 µM read?
Answer: 41%

Question: With `COc1cc2c(cc1OC)N(Cc1cccc(C(F)(F)F)c1)C(=O)CN=C2c1cccc(C#N)c1` [Compound 4g, 3-{7,8-dimethoxy-2-oxo-1-[3-(trifluoromethyl)benzyl]-2,3-dihydro-1H-1,4-benzodiazepin-5-yl]-benzonitrile] as the compound, how does the inhibition at 10 µM read?
Answer: 14.3%

Question: For `COc1cc2c(cc1OC)-n1ccnc1CN=C2c1cccc(C#N)c1` [Compound 11a, 3-(8,9-dimethoxy-4H-imidazo[1,2-a][1,4]benzodiazepin-6-yl)benzonitrile], which inhibition at 10 µM is on record?
Answer: 43%

Question: Which inhibition at 10 µM does the source give for `COc1cc2c(cc1OC)N(Cc1ccccc1)C(=O)CN=C2c1cccc(C(N)=O)c1` [Compound 5h, 3-(1-benzyl-7,8-dimethoxy-2-oxo-2,3-dihydro-1H-1,4-benzodiazepin-5-yl)benzamide] here?
Answer: 0%

Question: For `CCCC1N=C(c2cccc(CO)c2)c2cc(OC)c(OC)cc2N(C)C1=O` (stereo not shown) [Compound 17h, 7,8-dimethoxy-5-(3-hydroxymethylphenyl)-1-methyl-3-propyl-1,3-dihydro-2H-1,4-benzodiazepin-2-one], which inhibition at 10 µM is on record?
Answer: 9.2%

Question: Which inhibition at 10 µM does the source give for `COc1cc2c(c(-c3ccccc3)c1OC)C(c1cccc(C#N)c1)=NCC(=O)N2C` [Compound 25b, 3-(7,8-dimethoxy-1-methyl-2-oxo-6-phenyl-2,3-dihydro-1H-1,4-benzodiazepin-5-yl)benzonitrile] here?
Answer: 22.9%
